Experimental data reported in article PMC10366102, “Dose escalation and expansion cohorts in patients with advanced breast cancer in a Phase I study of the CDK7-inhibitor samuraciclib” (Nature Communications, 2023).
“And” between values parts separate entries of the source, which are not always exact repeats. Equal entries are not always repeated. Where two headings read alike, the source gives them in different places.

How the values were obtained:
dogs = settings: cited from earlier work; for AUC0-t: Dog, 20 mg/kg/day oral, ref IB
CDK7 = settings: cited from earlier work
Han Wistar rats = settings: rats 15 or 60 mg/kg/day and beagle dogs 20 mg/kg/day, 7 days; ref IB; cited from earlier work
[1] = tested on: patients with advanced malignancies; experiment: Safety pooled across study modules; assay type: in vivo
Description: These were summarized by Medical Dictionary for Regulatory
adverse events (SAEs) were analyzed and reported separately. Details of any deaths were listed. All
were listed individually by patient and summarized descriptively. For urinalysis parameters, any
positive. Abnormal physical examina tion findings were listed.

[2] = tested on: Han Wistar (Crl:WI [Han]) rats; settings: cited from earlier work
Ames test strains = tested on: Ames test strains; parameters: method as in ref IB; settings: up to the lower limit of toxicity; ref IB; cited from earlier work
human tumour xenograft = tested on: human tumour xenograft; parameters: method as in ref IB; settings: ref IB, cited from earlier work
CYP3A4 [3] = tested on: CYP3A4; parameters: method as in ref IB; settings: human microsomes; ref IB; cited from earlier work
CYP2C9 = tested on: CYP2C9; parameters: method as in ref IB; settings: human microsomes; ref IB; cited from earlier work
CYP2B6 = tested on: CYP2B6; parameters: method as in ref IB; settings: human microsomes; ref IB; cited from earlier work
[4] = tested on: patient-derived xenograft models of TNBC; parameters: method as in Bahl et al, 2017; settings: ref Bahl et al, 2017; cited from earlier work
[5] = tested on: HR+/HER2− advanced breast cancer; experiment: Module 2A anti-tumor activity (RECIST V1.1, PFS, ctDNA subgroups); assay type: in vivo, human
Description: A single-arm, ascending-dose study was conducted in 2 cohorts to explore the recommended dose of samuraciclib and fulvestrant in HR+/HER2− advanced breast cancer patients who had previously received, and become resistant to, a CDK4/6 inhibitor. Female patients with histologically confirmed diagnosis of breast cancer, evidence of metastatic or locally advanced disease, and documented ER+ and/or PgR+ and HER2- tumor status treated with an AI in combination with a CDK4/6i before study entry were eligible. In each cohort the dose of fulvestrant was 500 mg every 28 ± 2 days, with an additional 500 mg dose given 14 ± 2 days after the first dose. Cohort 1 tested samuraciclib 240 mg OD continuous dosing. If the DLT stopping criteria were not met, Cohort 2 commenced enrollment at the Module 1A MTD. Patients underwent regular safety monitoring and 8-week scans reported using RECIST V1.1[32].
Per-protocol ctDNA samples were taken in Module 1B-1 at screening, C1D1, C2D1 and on D1 of alternating cycles from Cycle 3; in Module 2A at screening, C1D1 and at either C2D1 (240 mg) or C2D15 (360 mg) for mutational analysis[24],[33], (Supplementary Information). pPolII in lymphocytes and pPolII and pCDK1/2/3 in core needle tissue samples from patients recruited to the paired biopsy cohort were evaluated for on-target pharmacodynamic analyses. […]
treatment RECIST assessment. […]
number of patients in the particular analysis population. Duration of response (DoR) was defined as the time from documentation of tumor response to disease progression. Progression-free survival (PFS) was […]
cause, whichever occurred first. Efficacy results were summarized descriptively and Kaplan -Meier plots provided where appropriate. […]

[6] = parameters: method as in ref IB; settings: ref IB, cited from earlier work
[7] = parameters: method as in ref IB; settings: dog microsomes; ref IB; cited from earlier work
CYP3A4 [8] = tested on: CYP3A4; parameters: method as in ref IB; settings: separate assay, ref IB, cited from earlier work
CYP2C19 = tested on: CYP2C19; parameters: method as in ref IB; settings: human microsomes; ref IB; cited from earlier work
dog = tested on: dog; parameters: method as in ref IB; settings: oral 5, 15, and 20 mg/kg, ref IB; cited from earlier work
[9] = parameters: method as in ref IB; settings: ref IB, cited from earlier work; remark: listed apart in the source
[10] = Module 1 (both parts) and Module 2A
[11] = as of 16 November 2020, 115 patients
[12] = Module 2A N = 25, + fulvestrant
[13] = Module 2A, 25 evaluable, + fulvestrant
[14] = Module 2A, Liver metastases (N = 14)

## CC(C)c1cnn2c(NCc3ccccc3)cc(NC[C@H]3CCNC[C@@H]3O)nc12 [samuraciclib, Samuraciclib]
dogs; Female
  AUC0-t: […]
dogs; Male
  AUC0-t: […]
dogs; dog, in vivo
  Highest non-severely toxic dose (HNSTD): […]
CDK7
  Selectivity over the next most sensitive kinase: […]
Han Wistar rats
  Reticulocyte numbers: significant decrease
[1]; 1 at 180mg BID and 1 at 360mg OD
  Events of Grade 4 thrombocytopenia: […]
[1]; 1 at 240mg OD and 2 at 360mg
  Events of Grade 1 platelet count decreased: […]
[1]; 96/98 patients, Modules 1A, 1B-1, 2A
  Patients with at least one AE considered related to samuraciclib: 98.0%
[1]; Grade 1 at 360mg OD and 180mg BID
  Events of neutropenia/white blood cell count decreased: […]
[1]; [10]
  Deaths considered related to samuraciclib treatment: None
  SAEs considered related to study treatment: 6
[1]; Module 1B-1 and Module 2A
  Recovery of platelets after stopping samuraciclib: […]
[1]; across dose levels, largely Grade 1, as of 16 November 2020
  Patients with diarrhoea, nausea and vomiting: […]
[1]; [11]
  Events of anaemia: […]
  Events of increased ALT: […]
  Events of increased AST: […]
  Platelet related AEs: […]
[1]; at 360mg OD
  Events of Grade 2 platelet count decreased: 1 event
  Events of Grade 3 thrombocytopenia: 1 event
[1]; discussion
  Thrombocytopenia reported as Grade ≥4: […]
[2]; 120 mg/kg/day, Han Wistar rats, ref IB
  Findings in 4-week oral gavage study: deaths and severe clinical
[2]; rat, in vivo
  HNSTD (middle dose tested): 60 mg/kg
Ames test strains
  Mutations in five strains Ames test: no mutations
Human tumour xenograft; 100 mg/kg/day
  Anti-tumour efficacy: robust efficacy
Human tumour xenograft; 30 and 50 mg/kg/day
  Anti-tumour efficacy: moderate efficacy
CYP3A4 [3]
  IC50: […]
CYP2C9
  IC50: […]
CYP2B6
  IC50: […]
[4]
  Activity in vivo: encouraging activity
[5]; Module 2A
  Patients with PR persisting ≥24 weeks: […]
  Patients with SD persisting ≥24 weeks: […]
[5]; Module 2A ITT N = 31, + fulvestrant
  Progression-free survival, median (95% confidence interval): […]
[5]; [12]
  Best objective response: Complete response: 0 n (%)
[5]; Module 2A, 9/25, + fulvestrant
  Clinical benefit rate at 24 weeks, overall: […]
[5]; [13]
  Best RECIST response PR: […]
  Best RECIST response SD: […]
[5]; Module 2A, + fulvestrant
  Patients achieving PR: […]
[5]; [14]
  Clinical benefit rate at 24 weeks: […]
  Progression-free survival, median (95% CI): […]
[5]; Module 2A, No TP53 mutation (N = 19)
  Clinical benefit rate at 24 weeks: […]
[5]; Module 2A, No TP53 mutation (N = 20)
  Progression-free survival, median (95% CI): […]
[5]; Module 2A, No liver metastases (N = 11)
  Clinical benefit rate at 24 weeks: 6 (54.5) n (%)
[5]; Module 2A, No liver metastases (N = 17)
  Progression-free survival, median (95% CI): […]
[5]; Module 2A, TP53 mutation (N = 6)
  Clinical benefit rate at 24 weeks: 0 n (%)
[5]; Module 2A, TP53 mutation (N = 7)
  Progression-free survival, median (95% CI): […]
[5]; Module 2A, TP53 mutation group n = 6
  Clinical benefit rate at 24 weeks: 0%
[5]; Module 2A, liver metastases, 3/14
  Clinical benefit rate at 24 weeks: […]
[5]; Module 2A, no detectable TP53 mutation, 9/19
  Clinical benefit rate at 24 weeks: […]
[5]; Module 2A, no liver metastases, 6/11
  Clinical benefit rate at 24 weeks: 54.5%
[5]; Module 2A, 95% CI: 0.04–0.59
  Hazard ratio for PFS, no detectable liver metastases: […]
[5]; Module 2A, 95% CI: 0.05-0.45
  Hazard ratio for PFS, absence of TP53 mutation: […]
[6]; rat
  Oral bioavailability: good oral bioavailability
[6]; rats
  Plasma clearance: high
  Volume of distribution: high volume of distribution
[7]
  Intrinsic clearance: intermediate
CYP3A4 [8]; midazolam as substrate
  IC50: […]
CYP3A4 [8]; testosterone as substrate
  IC50: […]
CYP2C19
  IC50: […]
dog
  Haemodynamic parameters, ECG parameters, body temperature: no effect
[9]; human hepatocytes
  Overall turnover: low
[9]; mouse and human hepatocytes
  Phase II metabolism (e.g., glucuronidation): No evidence
